Key:
[1] = target: Ribosomal protein S6 kinase alpha-3 (Homo sapiens) (UniProt P51812); test: Inhibition of RSK2 domain2 in human PC3 cell lysates at 10 uM using desthiobiotin-tagged ATP probe AX9989 followed by trypsinization by LC/MS analysis; details: PC-3
[2] = target: Serine/threonine-protein kinase Chk2 (Homo sapiens) (UniProt O96017); test: Inhibition of CHK2 in human PC3 cell lysates at 10 uM using desthiobiotin-tagged ATP probe AX9989 followed by trypsinization by LC/MS analysis; details: PC-3
[3] = target: Cyclin-dependent kinase 8 (Homo sapiens) (UniProt P49336); test: Inhibition of CDK8 in human PC3 cell lysates at 10 uM using desthiobiotin-tagged ATP probe AX9989 followed by trypsinization by LC/MS analysis; details: PC-3
[4] = target: Cyclin-dependent kinase 5 (Homo sapiens) (UniProt Q00535); test: Inhibition of CDK5 in human PC3 cell lysates at 10 uM using desthiobiotin-tagged ATP probe AX9989 followed by trypsinization by LC/MS analysis; details: PC-3
[5] = target: Ephrin type-A receptor 7 (Homo sapiens) (UniProt Q15375); test: Inhibition of EphA7 in human PC3 cell lysates at 10 uM using desthiobiotin-tagged ATP probe AX9989 followed by trypsinization by LC/MS analysis; details: PC-3
[6] = target: Mitogen-activated protein kinase kinase kinase 11 (Homo sapiens) (UniProt Q16584); test: Inhibition of MLK3 in human PC3 cell lysates at 10 uM using desthiobiotin-tagged ATP probe AX9989 followed by trypsinization by LC/MS analysis; details: PC-3
[7] = target: 3-phosphoinositide-dependent protein kinase 1 (Homo sapiens) (UniProt O15530); test: Inhibition of PDK1 in human PC3 cell lysates at 10 uM using desthiobiotin-tagged ATP probe AX9989 followed by trypsinization by LC/MS analysis; details: PC-3
[8] = target: Cyclin-dependent kinase 14 (Homo sapiens) (UniProt O94921); test: Inhibition of PFTAIRE1 in human PC3 cell lysates at 10 uM using desthiobiotin-tagged ATP probe AX9989 followed by trypsinization by LC/MS analysis; details: PC-3
[9] = target: Phosphatidylinositol 4-kinase beta (Homo sapiens) (UniProt Q9UBF8); test: Inhibition of PI4KB in human PC3 cell lysates at 10 uM using desthiobiotin-tagged ATP probe AX9989 followed by trypsinization by LC/MS analysis; details: PC-3
[10] = target: T1, Serine/threonine-protein kinase D2 (Homo sapiens) (UniProt Q9BZL6); test: Inhibition of PKD2 in human PC3 cell lysates at 10 uM using desthiobiotin-tagged ATP probe AX9989 followed by trypsinization by LC/MS analysis; details: PC-3
T1 sequence (whole entry): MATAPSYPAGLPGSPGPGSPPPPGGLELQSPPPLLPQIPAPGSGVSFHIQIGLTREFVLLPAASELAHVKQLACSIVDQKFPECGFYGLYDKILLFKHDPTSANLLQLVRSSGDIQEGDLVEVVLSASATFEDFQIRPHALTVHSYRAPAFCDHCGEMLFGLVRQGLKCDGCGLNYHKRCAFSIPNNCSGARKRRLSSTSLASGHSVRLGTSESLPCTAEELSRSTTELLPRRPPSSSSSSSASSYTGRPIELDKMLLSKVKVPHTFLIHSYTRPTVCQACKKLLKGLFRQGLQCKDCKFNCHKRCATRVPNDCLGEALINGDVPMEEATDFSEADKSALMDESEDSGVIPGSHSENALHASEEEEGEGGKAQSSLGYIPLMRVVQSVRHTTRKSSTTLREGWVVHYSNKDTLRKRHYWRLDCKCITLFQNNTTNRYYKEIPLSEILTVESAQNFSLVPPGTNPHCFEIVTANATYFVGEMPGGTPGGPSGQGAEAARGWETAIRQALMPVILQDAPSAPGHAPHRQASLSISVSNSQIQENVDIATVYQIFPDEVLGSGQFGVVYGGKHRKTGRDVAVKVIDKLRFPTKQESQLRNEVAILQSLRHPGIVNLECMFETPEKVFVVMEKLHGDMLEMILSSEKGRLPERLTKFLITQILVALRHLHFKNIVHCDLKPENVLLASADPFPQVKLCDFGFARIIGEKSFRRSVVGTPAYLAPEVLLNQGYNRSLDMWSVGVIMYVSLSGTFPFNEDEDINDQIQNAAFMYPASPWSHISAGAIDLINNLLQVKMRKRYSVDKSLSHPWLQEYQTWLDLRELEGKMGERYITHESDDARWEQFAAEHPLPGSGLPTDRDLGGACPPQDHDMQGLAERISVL

[11] = target: Casein kinase I delta/epsilon (Homo sapiens) (UniProt P48730+P49674); test: Inhibition of CK1delta/CK1epsilon in human PC3 cell lysates at 10 uM using desthiobiotin-tagged ATP probe AX9989 followed by trypsinization by LC/MS analysis; type: protein-complex assay; details: PC-3
[12] = target: Serine/threonine-protein kinase WNK1 (Homo sapiens) (UniProt Q9H4A3); test: Inhibition of Wnk1 in human PC3 cell lysates at 10 uM using desthiobiotin-tagged ATP probe AX9989 followed by trypsinization by LC/MS analysis; details: PC-3
[13] = system: PC-3; test: Inhibition of KHS2 in human PC3 cell lysates at 10 uM using desthiobiotin-tagged ATP probe AX9989 followed by trypsinization by LC/MS analysis; type: cell-free

Measured: inhibition

Ribosomal protein S6 kinase alpha-3 (Homo sapiens), sequence (P51812 whole entry, the tested form may be a part): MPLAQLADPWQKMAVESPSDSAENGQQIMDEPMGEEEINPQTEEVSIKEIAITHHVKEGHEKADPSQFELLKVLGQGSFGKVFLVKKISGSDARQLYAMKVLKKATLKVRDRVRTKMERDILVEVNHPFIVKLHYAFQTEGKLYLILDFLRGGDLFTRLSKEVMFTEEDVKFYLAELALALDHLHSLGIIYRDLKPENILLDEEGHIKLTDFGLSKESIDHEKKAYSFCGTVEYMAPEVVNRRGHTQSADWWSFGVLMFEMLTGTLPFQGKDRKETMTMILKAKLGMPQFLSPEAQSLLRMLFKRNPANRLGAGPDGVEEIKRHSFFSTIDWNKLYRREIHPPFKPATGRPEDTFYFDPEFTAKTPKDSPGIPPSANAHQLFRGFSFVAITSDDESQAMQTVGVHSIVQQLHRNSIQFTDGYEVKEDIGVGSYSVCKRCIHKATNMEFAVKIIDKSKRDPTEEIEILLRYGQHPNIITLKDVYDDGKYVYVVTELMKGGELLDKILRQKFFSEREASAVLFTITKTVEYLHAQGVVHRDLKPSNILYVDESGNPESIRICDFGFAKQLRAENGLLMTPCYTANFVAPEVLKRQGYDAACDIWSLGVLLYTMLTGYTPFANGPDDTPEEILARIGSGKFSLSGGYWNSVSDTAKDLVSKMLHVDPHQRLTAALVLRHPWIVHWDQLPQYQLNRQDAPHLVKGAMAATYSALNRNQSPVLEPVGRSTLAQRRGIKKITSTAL
Serine/threonine-protein kinase Chk2 (Homo sapiens), sequence (O96017 whole entry): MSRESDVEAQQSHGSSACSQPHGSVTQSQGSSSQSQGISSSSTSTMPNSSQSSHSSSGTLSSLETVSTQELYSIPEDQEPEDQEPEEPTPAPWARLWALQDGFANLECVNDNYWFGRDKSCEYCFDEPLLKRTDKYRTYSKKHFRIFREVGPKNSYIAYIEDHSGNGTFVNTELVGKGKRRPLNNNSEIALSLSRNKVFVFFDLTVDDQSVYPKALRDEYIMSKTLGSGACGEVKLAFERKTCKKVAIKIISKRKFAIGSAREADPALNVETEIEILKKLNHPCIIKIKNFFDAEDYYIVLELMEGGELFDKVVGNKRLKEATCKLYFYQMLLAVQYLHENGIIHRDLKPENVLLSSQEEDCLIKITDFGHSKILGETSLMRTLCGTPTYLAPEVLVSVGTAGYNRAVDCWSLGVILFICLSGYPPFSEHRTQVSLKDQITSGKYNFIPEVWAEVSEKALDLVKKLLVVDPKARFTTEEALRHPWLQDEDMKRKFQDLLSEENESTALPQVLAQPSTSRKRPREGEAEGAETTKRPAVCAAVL
Cyclin-dependent kinase 8 (Homo sapiens), sequence (P49336 whole entry): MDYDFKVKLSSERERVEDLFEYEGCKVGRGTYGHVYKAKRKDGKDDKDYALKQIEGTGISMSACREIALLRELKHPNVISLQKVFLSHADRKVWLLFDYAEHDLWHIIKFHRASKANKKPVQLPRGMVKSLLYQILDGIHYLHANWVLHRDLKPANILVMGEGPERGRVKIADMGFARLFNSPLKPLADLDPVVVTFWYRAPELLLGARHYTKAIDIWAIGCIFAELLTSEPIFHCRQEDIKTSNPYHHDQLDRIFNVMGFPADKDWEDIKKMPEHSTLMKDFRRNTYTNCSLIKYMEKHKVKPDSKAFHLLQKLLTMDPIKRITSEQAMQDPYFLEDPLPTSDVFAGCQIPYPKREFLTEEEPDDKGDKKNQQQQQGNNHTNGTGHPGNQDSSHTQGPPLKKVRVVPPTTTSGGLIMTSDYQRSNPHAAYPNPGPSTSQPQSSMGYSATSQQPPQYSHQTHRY
Cyclin-dependent kinase 5 (Homo sapiens), sequence (Q00535 whole entry, looked up): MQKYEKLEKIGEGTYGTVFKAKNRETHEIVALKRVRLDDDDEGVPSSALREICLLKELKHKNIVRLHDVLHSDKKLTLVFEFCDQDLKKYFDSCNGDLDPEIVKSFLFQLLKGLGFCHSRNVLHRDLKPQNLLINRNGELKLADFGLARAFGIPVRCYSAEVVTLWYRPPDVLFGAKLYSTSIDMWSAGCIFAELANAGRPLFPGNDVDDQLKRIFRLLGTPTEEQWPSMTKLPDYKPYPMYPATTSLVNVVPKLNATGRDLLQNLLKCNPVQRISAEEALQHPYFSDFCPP
Ephrin type-A receptor 7 (Homo sapiens), sequence (Q15375 28-998 limits assumed): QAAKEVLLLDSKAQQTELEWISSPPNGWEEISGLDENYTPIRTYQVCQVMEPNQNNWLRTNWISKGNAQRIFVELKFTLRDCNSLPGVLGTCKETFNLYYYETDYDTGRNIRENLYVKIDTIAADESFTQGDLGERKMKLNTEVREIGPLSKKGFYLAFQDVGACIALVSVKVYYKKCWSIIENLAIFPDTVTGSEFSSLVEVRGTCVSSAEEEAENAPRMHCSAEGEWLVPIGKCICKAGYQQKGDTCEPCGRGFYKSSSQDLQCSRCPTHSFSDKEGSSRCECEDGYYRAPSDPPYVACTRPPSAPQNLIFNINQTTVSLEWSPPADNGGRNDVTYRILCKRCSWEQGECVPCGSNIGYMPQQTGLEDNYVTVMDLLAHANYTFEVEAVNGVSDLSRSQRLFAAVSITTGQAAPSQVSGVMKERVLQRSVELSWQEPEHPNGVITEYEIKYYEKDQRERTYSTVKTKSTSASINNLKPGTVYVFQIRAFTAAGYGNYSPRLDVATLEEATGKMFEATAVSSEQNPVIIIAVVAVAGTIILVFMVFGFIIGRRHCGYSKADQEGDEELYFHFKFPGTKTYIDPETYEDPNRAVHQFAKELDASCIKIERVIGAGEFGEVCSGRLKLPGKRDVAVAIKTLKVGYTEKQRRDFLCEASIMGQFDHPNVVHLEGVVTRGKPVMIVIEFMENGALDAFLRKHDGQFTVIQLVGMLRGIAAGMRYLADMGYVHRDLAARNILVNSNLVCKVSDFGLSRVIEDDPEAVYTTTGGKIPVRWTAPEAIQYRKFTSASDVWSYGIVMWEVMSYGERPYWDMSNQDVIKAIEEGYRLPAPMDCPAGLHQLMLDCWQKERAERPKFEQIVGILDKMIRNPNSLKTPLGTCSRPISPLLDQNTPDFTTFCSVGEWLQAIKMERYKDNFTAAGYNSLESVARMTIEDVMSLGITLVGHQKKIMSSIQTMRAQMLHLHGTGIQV
Mitogen-activated protein kinase kinase kinase 11 (Homo sapiens), sequence (Q16584 whole entry, looked up): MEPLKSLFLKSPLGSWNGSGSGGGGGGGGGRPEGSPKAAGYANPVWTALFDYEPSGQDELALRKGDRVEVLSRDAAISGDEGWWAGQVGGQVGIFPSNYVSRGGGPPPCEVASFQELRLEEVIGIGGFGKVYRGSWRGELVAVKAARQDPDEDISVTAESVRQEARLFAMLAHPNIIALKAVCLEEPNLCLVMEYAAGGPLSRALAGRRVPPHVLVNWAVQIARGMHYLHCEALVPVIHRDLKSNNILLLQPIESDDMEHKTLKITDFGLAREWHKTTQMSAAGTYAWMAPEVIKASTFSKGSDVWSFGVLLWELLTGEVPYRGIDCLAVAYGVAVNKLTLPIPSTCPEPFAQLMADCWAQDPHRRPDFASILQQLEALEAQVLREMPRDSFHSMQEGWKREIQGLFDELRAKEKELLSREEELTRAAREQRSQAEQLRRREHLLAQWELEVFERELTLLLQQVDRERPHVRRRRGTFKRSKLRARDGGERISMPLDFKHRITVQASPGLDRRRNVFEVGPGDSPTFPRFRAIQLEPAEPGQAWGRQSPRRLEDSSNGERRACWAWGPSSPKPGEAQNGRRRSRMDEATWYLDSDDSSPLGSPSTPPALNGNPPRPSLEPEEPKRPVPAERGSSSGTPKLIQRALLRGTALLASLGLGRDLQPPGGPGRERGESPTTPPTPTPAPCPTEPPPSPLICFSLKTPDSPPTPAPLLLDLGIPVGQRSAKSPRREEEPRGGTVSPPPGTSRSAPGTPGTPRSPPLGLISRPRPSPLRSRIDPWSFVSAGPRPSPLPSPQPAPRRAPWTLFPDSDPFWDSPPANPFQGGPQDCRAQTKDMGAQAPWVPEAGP
3-phosphoinositide-dependent protein kinase 1 (Homo sapiens), sequence (O15530 whole entry, looked up): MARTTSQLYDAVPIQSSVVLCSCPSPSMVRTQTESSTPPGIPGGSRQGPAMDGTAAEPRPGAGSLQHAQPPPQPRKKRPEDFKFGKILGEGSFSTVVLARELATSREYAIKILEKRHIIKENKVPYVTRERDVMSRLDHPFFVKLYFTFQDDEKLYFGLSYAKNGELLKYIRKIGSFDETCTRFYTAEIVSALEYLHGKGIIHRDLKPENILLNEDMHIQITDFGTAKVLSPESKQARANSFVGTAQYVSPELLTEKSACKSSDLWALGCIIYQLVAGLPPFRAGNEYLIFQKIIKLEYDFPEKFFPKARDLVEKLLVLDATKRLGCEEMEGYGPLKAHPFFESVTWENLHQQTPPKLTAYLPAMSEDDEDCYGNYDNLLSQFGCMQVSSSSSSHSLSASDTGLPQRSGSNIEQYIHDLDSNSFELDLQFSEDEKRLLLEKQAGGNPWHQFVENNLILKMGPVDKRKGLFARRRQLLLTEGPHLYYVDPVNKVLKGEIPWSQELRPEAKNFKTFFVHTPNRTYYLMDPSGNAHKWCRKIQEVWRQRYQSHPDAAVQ
Cyclin-dependent kinase 14 (Homo sapiens), sequence (O94921 whole entry): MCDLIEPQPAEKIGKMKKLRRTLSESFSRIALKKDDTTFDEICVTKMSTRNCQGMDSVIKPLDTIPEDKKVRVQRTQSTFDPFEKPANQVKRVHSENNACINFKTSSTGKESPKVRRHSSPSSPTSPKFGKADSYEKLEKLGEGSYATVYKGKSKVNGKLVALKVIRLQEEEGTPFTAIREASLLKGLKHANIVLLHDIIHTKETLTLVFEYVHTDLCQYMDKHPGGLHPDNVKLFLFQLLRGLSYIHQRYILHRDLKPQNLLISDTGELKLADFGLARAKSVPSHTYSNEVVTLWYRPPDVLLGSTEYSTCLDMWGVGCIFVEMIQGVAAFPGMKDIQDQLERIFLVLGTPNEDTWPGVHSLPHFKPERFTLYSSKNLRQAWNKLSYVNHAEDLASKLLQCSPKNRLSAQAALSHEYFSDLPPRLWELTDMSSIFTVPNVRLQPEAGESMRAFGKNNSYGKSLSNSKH

O=C(NC1(Cc2ccc(F)cc2)CC1)c1ccc2nc(N[C@H]3CC[C@H](O)CC3)c3nccn3c2c1
< 35%: all assays above

— ChEMBL document CHEMBL2417377, “Hit-to-lead optimization and kinase selectivity of imidazo[1,2-a]quinoxalin-4-amine derived JNK1 inhibitors” (Bioorg Med Chem Lett, 2013)
